According to US10759793B2, “2-(pyrazolopyridin-3-yl)pyrimidine derivatives as JAK inhibitors” (ALMIRALL, S.A., priority 2015, dated 2020):

Assays:
Format in all cases: biochemical
JAK1 = JAK1 (Homo sapiens (Human), UniProt P23458); test: In vitro JAK kinase assay (TR-FRET), JAK1; details: catalytic domain aa 850-1154, GST-fusion; ATP 3 μM; peptide 60 nM; 30 minutes at room temperature
Method: (§1) Compounds were screened for their ability to inhibit JAK1, JAK2 and JAK3 using the assays as indicated below. […] The enzymatic activity was assayed using as substrate a biotinylated peptide, poly (GT)-Biotin (CisBio). […] The degree of phosphorylation was detected by TR-FRET (time-resolved fluorescence energy transfer). […] The enzymatic reactions took place for 30 minutes at room temperature. […] Incubate for 3 h and read on Victor 2V spectrofluorometer (Perkin Elmer) set to read fluorescence resonance energy transfer.

JAK3 = JAK3 (Homo sapiens (Human), UniProt P52333); test: In vitro JAK kinase assay (TR-FRET), JAK3; details: catalytic domain aa 795-1124, GST-fusion; ATP 0.6 μM; peptide 140 nM; 30 minutes at room temperature
Sequence of JAK3 (P52333 795-1124): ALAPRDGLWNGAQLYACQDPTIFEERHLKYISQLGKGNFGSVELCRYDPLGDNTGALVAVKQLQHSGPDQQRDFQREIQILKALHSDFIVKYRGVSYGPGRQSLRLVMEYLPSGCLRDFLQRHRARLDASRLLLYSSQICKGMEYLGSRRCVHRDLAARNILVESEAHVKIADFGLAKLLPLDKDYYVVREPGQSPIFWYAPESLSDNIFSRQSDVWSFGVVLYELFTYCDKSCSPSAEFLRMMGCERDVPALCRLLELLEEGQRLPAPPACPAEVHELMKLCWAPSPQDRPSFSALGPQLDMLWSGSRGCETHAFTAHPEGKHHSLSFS
Method: as §1

JAK2 = JAK2 (Homo sapiens (Human), UniProt O60674); test: In vitro JAK kinase assay (TR-FRET), JAK2; details: catalytic domain aa 826-1132, GST-fusion; ATP 0.2 μM; peptide 20 nM; 30 minutes at room temperature
Sequence of JAK2 (O60674 826-1132): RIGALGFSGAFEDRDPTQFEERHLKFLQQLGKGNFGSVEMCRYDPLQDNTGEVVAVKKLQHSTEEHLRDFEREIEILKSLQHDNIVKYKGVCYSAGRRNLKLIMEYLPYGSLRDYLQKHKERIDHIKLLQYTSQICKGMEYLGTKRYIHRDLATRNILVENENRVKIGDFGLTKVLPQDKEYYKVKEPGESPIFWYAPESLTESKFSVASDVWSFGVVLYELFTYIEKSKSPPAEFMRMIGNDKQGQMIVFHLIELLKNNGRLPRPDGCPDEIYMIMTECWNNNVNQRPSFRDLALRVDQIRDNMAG
Method: as §1

Sequence of JAK1 (P23458 850-1154): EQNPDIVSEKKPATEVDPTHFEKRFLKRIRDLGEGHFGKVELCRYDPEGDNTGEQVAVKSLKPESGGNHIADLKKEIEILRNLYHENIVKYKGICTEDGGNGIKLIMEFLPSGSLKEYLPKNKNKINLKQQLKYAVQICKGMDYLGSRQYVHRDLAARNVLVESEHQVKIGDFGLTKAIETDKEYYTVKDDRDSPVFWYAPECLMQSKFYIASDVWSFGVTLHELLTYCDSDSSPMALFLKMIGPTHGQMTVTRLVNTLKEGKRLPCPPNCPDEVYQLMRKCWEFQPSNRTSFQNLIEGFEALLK

Row | IC50 (JAK1) [nM] | IC50 (JAK3) [nM] | IC50 (JAK2) [nM] | Compound
1 | 114 | 5 | 2 | COC[C@@H](C)Oc1nc(-c2cnn3ccccc23)nc(N[C@@H]2CCCN(c3cnc(C#N)cn3)C2)c1F [Example 91, 5-[(3R)-3-({5-Fluoro-6-[(1R)-2-methoxy-1-methylethoxy]-2-pyrazolo[1,5-a]pyridin-3-ylpyrimidin-4-yl}amino)piperidin-1-yl]pyrazine-2-carbonitrile]
2 | 7 |  |  | COc1ccc(-c2nc(-c3cnn4ccccc34)nc(N[C@@H]3CCCN(C(=O)CO)C3)c2F)cn1 [Example 35, 2-((3R)-3-{[5-Fluoro-6-(6-methoxypyridin-3-yl)-2-pyrazolo[1,5-a]pyridin-3-ylpyrimidin-4-yl]amino}piperidin-1-yl)-2-oxoethanol]
3 | 37 | 11 | 3 | O=C(CO)N1CCC[C@@H](Oc2nc(-c3cnn4ccccc34)nc(NCCO)c2F)C1 [Example 69, 2-[(3R)-3-({5-Fluoro-6-[(2-hydroxyethyl)amino]-2-pyrazolo[1,5-a]pyridin-3-ylpyrimidin-4-yl}oxy)piperidin-1-yl]-2-oxoethanol]
4 | 32 | 4 |  | CCOCCOc1nc(-c2cnn3ccccc23)nc(N[C@@H]2CCCN(C(=O)CO)C2)c1F [Example 83, 2-((3R)-3-{[6-(2-Ethoxyethoxy)-5-fluoro-2-pyrazolo[1,5-a]pyridin-3-ylpyrimidin-4-yl]amino}piperidin-1-yl)-2-oxoethanol]
5 | 6 | 2 | 0.6 | CC(C)(O)Cn1cc(-c2nc(-c3cnn4ccccc34)nc(N[C@@H]3CCCN(C(=O)CO)C3)c2F)cn1 [Example 33, 1-[4-(5-Fluoro-6-{[(3R)-1-glycoloylpiperidin-3-yl]amino}-2-pyrazolo[1,5-a]pyridin-3-ylpyrimidin-4-yl)-1H-pyrazol-1-yl]-2-methylpropan-2-ol]
6 | 2 | 2 | 0.5 | Cc1ccc(-c2nc(-c3cnn4ccccc34)nc(N[C@@H]3CCCN(C(=O)CO)C3)c2F)cn1 [Example 36, 2-((3R)-3-{[5-Fluoro-6-(6-methylpyridin-3-yl)-2-pyrazolo[1,5-a]pyridin-3-ylpyrimidin-4-yl]amino}piperidin-1-yl)-2-oxoethanol]
7 | 220 | 4 | 1 | CN(C)C1CCN(c2nc(-c3cnn4ccccc34)nc(N[C@H]3CC[C@H](CC#N)CC3)c2F)CC1 [Example 4, [Trans-4-({6-[4-(dimethylamino)piperidin-1-yl]-5-fluoro-2-pyrazolo[1,5-a]pyridin-3-ylpyrimidin-4-yl}amino)cyclohexyl]acetonitrile]
8 | 3 | 4 | 1 | O=C(CO)N1CCC[C@@H](Oc2nc(-c3cnn4ccccc34)nc(-c3ccnc(CO)c3)c2F)C1 [Example 74, 2-[(3R)-3-({5-Fluoro-6-[2-(hydroxymethyl)pyridin-4-yl]-2-pyrazolo[1,5-a]pyridin-3-ylpyrimidin-4-yl}oxy)piperidin-1-yl]-2-oxoethanol]
9 | 3 | 5 |  | COc1cc(-c2cc(N[C@@H]3CCCN(C(=O)CO)C3)nc(-c3cnn4ccccc34)n2)ccn1 [Example 98, 2-((3R)-3-{[6-(2-Methoxypyridin-4-yl)-2-pyrazolo[1,5-a]pyridin-3-ylpyrimidin-4-yl]amino}piperidin-1-yl)-2-oxoethanol]
10 | 1 | 2 | 0.6 | N#CCC(=O)N1CCC[C@@H](Nc2nc(-c3cnn4ccccc34)nc(-c3ccc(N)nc3)c2F)C1 [Example 18, 3-((3R)-3-{[6-(6-Aminopyridin-3-yl)-5-fluoro-2-pyrazolo[1,5-a]pyridin-3-ylpyrimidin-4-yl]amino}piperidin-1-yl)-3-oxopropanenitrile]
11 | 1 | 2 | 0.4 | N#CCC(=O)N1CCC[C@@H](Nc2nc(-c3cnn4ccccc34)nc(N3CCC(C(=O)O)CC3)c2F)C1 [Example 31, 1-(6-{[(3R)-1-(Cyanoacetyl)piperidin-3-yl]amino}-5-fluoro-2-pyrazolo[1,5-a]pyridin-3-ylpyrimidin-4-yl)piperidine-4-carboxylic acid]
12 | 4 | 2 | 0.8 | O=C(CO)N1CCC[C@@H](Nc2nc(-c3cnn4ccccc34)nc(OCCO)c2F)C1 [Example 40, 2-((3R)-3-{[5-Fluoro-6-(2-hydroxyethoxy)-2-pyrazolo[1,5-a]pyridin-3-ylpyrimidin-4-yl]amino}piperidin-1-yl)-2-oxoethanol]
13 | 10 | 12 | 4 | N#Cc1nc(-c2cnn3ccccc23)nc(N[C@@H]2CCCN(C(=O)CO)C2)c1F [Example 47, 5-Fluoro-6-{[(3R)-1-glycoloylpiperidin-3-yl]amino}-2-pyrazolo[1,5-a]pyridin-3-ylpyrimidine-4-carbonitrile]
14 | 2 | 5 | 5 | O=C(CO)N1CCC[C@@H](Nc2cc(-c3cncc(O)c3)nc(-c3cnn4ccccc34)n2)C1 [Example 105, 5-(6-{[(3R)-1-Glycoloylpiperidin-3-yl]amino}-2-pyrazolo[1,5-a]pyridin-3-ylpyrimidin-4-yl)pyridin-3-ol]
15 | 19 | 3 | 0.7 | COCCOc1nc(-c2cnn3ccccc23)nc(N[C@@H]2CCCN(C(=O)CO)C2)c1C [Example 27, 2-((3R)-3-{[6-(2-Methoxyethoxy)-5-methyl-2-pyrazolo[1,5-a]pyridin-3-ylpyrimidin-4-yl]amino}piperidin-1-yl)-2-oxoethanol]
16 | 9 | 8 | 2 | Cc1ncc(-c2nc(-c3cnn4ccccc34)nc(N[C@@H]3CCCN(C(=O)CO)C3)c2F)cn1 [Example 82, 2-{(3R)-3-[(5-Fluoro-2′-methyl-2-pyrazolo[1,5-a]pyridin-3-yl-4,5′-bipyrimidin-6-yl)amino]piperidin-1-yl}-2-oxoethanol]
17 | 1 | 1 | 0.5 | Cc1cc(-c2nc(-c3cnn4ccccc34)nc(N[C@@H]3CCCN(C(=O)CC#N)C3)c2F)ccn1 [Example 20, 3-((3R)-3-{[5-fluoro-6-(2-methylpyridin-4-yl)-2-pyrazolo[1,5-a]pyridin-3-ylpyrimidin-4-yl]amino}piperidin-1-yl)-3-oxopropanenitrile]
18 | 2 | 6 |  | O=C(O)c1ccc(-c2nc(-c3cnn4ccccc34)nc(N[C@@H]3CCCN(C(=O)CO)C3)c2F)cn1 [Example 79, 5-(5-Fluoro-6-{[(3R)-1-glycoloylpiperidin-3-yl]amino}-2-pyrazolo[1,5-a]pyridin-3-ylpyrimidin-4-yl)pyridine-2-carboxylic acid]
19 | 13 | 5 |  | NC(=O)c1nc(-c2cnn3ccccc23)nc(N[C@@H]2CCCN(C(=O)CO)C2)c1F [Example 48, 5-Fluoro-6-{[(3R)-1-glycoloylpiperidin-3-yl]amino}-2-pyrazolo[1,5-a]pyridin-3-ylpyrimidine-4-carboxamide]
20 | 10 | 4 |  | N#CCC(=O)N1CCC[C@@H](Oc2nc(-c3cnn4ccccc34)nc(OCCO)c2F)C1 [Example 66, 3-((3R)-3-{[5-Fluoro-6-(2-hydroxyethoxy)-2-pyrazolo[1,5-a]pyridin-3-ylpyrimidin-4-yl]oxy}piperidin-1-yl)-3-oxopropanenitrile]
21 | 7 |  |  | N#Cc1cnc(N2CCC[C@@H](Nc3nc(-c4cnn5ccccc45)nc(OCCO)c3F)C2)cn1 [Example 54, 5-((3R)-3-{[5-fluoro-6-(2-hydroxyethoxy)-2-pyrazolo[1,5-a]pyridin-3-ylpyrimidin-4-yl]amino}piperidin-1-yl)pyrazine-2-carbonitrile]
22 | 2 | 5 |  | O=C(CO)N1CCC[C@@H](Nc2nc(-c3cnn4ccccc34)nc(-c3ccc(CO)nc3)c2F)C1 [Example 84, 2-[(3R)-3-({5-Fluoro-6-[6-(hydroxymethyl)pyridin-3-yl]-2-pyrazolo[1,5-a]pyridin-3-ylpyrimidin-4-yl}amino)piperidin-1-yl]-2-oxoethanol]
23 | 16 | 10 |  | N#CC[C@H]1CC[C@H](Nc2nc(-c3cnn4ccccc34)nc(NCCO)c2F)CC1 [Example 8, [Trans-4-({5-fluoro-6-[(2-hydroxyethyl)amino]-2-pyrazolo[1,5-a]pyridin-3-ylpyrimidin-4-yl}amino)cyclohexyl]acetonitrile]

Row | Compound | IC50 (JAK1) [nM] | IC50 (JAK3) [nM] | IC50 (JAK2) [nM]
24 | (5-{(3R)-3-[(5-fluoro-6-methoxy-2-pyrazolo[1,5-a]pyridin-3-ylpyrimidin-4-yl)amino]piperidin-1-yl}pyrazin-2-yl)methanol [Example 55] | 170 | 33 | 12
25 | 3-{(3R)-3-[(6-Methoxy-2-pyrazolo[1,5-a]pyridin-3-ylpyrimidin-4-yl)amino]piperidin-1-yl}-3-oxopropanenitrile [Example 95] | 3 | 7 | 3
26 | CCCCOc1nc(-c2cnn3ccccc23)nc(N[C@@H]2CCCN(C(=O)CC#N)C2)c1F [Example 15, 3-{(3R)-3-[(6-butoxy-5-fluoro-2-pyrazolo[1,5-a]pyridin-3-ylpyrimidin-4-yl)amino]piperidin-1-yl}-3-oxopropanenitrile] | 13 | 2 | 1
